Entries after “also recorded” stand apart in the source; their conditions may differ. Structures can show the parent of a compound that is named as a salt. Where two headings read alike, the source gives them in different places. Starred links: 1 amine or outer side, 2 acyl side, 3 side chain; linkers in the order of their positions; H or OH if unused. Positions of bridges follow the written chain, without caps; N, C: chain ends. Non-standard residues stand in square brackets, D forms with d. Residues, ends and D or L forms follow the SMILES beside them. Chains are numbered I, II in the order given. Actinocin(9to1) = Cc1c2oc3c(C)ccc(C(=O)[*:1])c3nc-2c(C(=O)[*:2])c(N)c1=O; NMeV = CN[C@H](C(=O)O)C(C)C; Nle = CCCC[C@H](N)C(=O)O; Sar = CNCC(=O)O
Key:
[1] = test system: ICAM-1; experiment: X-ray induction of ICAM-1 expression with enzyme inhibitors; format: cell-based, human; conditions: inhibitor added prior to irradiation
From the text: (§1) The initial step in discerning the potential role of various signal transduction pathways is to add enzyme inhibitors prior to x-radiation. Exocytosis of Weibel-Palade bodies is an active process requiring the translocation of cytoplasmic granules. Previous studies have shown that intracellular signal transduction required for Weibel Palade body translocation involves influx of calcium and protein kinase C activation (calcium, PKC). To determine whether these signaling pathways participate in radiation-mediated Weibel-Palade body exocytosis, the inventors added the intracellular calcium chelator BAPTA and the protein kinase C inhibitor, calphostin, to HUVEC cells prior to irradiation. Cells were then treated with 10 Gy and immunofluorescence was used to localize P-selectin. […] Conversely, the tyrosin kinase inhibitor, herbimycin A, had no effect on Weibel-Palade exocytosis. To determine whether calcium chelation and protein kinase inhibition prevent all molecular responses to ionizing radiation, the inventors' added BAPTA and calphostin prior to radiation-induction of ICAM-1 expression. BAPTA and calphostin had no effect on x-ray induction of ICAM-1. However, herbimycin A and the NFkB inhibitor ALLN attenuated x-ray induction of ICAM-1.

[2] = test system: selectin; conditions: cited from earlier work; for block selectin binding to sLe^x: in vitro
[3] = test system: HL60 cells; experiment: HL60 leukocyte adhesion to irradiated HUVECs; format: cell-based, human; conditions: 1 mM each; added 4 h after 10 Gy and 30 min prior to HL60 cells
Protocol: Human leukemia cell line HL60 has been used to quantify leukocyte adhesion to endothelial cells (Jones et al., 1995). HL60 cells were added to human umbilical vein in endothelial cells (HUVECs) after exposure to 10 Gy or cells treated with otherwise identical conditions without irradiation. Cultures were washed and cells were counted using a hemocytometer. […] Each agent blocked the adherence of HL60 cells to irradiated HUVECs.

[4] = test system: vWF; conditions: disruption of microtubules; cited from earlier work
[5] = test system: E-selectin; conditions: Hallahan et al., 1995, 1996; cited from earlier work
[6] = test system: ICAM-1; conditions: Hallahan et al., 1995, 1996; cited from earlier work
[7] = test system: P-selectin; experiment: P-selectin translocation (Weibel-Palade body exocytosis) in irradiated HUVEC with enzyme inhibitors, immunofluorescence; format: cell-based, human; conditions: inhibitor added prior to irradiation, 10 Gy
From the text: as §1

[8] = test system: von Willebrand Factor; conditions: Vischer et al., 1995; cited from earlier work
[9] = rats, orally; Akao et al. (1994); cited from earlier work
[10] = target: T1, E-selectin (Homo sapiens, UniProt P16581); conditions: Nelson et al. (1993); cited from earlier work
T1 sequence (P16581 22-610): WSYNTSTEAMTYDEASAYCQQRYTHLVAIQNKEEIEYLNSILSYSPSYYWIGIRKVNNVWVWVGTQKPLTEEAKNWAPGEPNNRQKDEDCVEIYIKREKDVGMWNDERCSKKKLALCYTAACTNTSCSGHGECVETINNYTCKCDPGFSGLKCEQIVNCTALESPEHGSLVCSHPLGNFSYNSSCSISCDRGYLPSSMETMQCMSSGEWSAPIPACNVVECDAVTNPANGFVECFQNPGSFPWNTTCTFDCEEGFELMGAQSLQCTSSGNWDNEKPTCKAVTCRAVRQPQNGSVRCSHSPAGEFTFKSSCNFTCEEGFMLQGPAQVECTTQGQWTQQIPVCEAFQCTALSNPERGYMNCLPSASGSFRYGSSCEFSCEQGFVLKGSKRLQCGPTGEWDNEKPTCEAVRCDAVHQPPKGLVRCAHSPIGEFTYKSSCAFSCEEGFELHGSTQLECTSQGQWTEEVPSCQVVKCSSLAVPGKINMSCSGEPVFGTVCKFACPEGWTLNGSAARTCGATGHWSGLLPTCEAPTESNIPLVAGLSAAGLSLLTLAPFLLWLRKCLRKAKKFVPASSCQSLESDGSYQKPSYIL

[11] = test system: P-selectin; experiment: P-selectin translocation in irradiated HUVEC with microtubule or actin agents, confocal immunofluorescence; format: cell-based, human; conditions: for x-ray induced translocation of P-selectin: HUVEC pretreated 45 min, staining 60 minutes after x-irradiation (2 Gy); for 8-fold increase in P-selectin immunofluorescence on the cell surface: x-irradiated (2 Gy) HUVEC, confocal microscopy quantified by NIH Image, FIG. 2
[12] = Narasinga Rao et al. (1994); cited from earlier work

## CCCC[C@@H](C=O)NC(=O)[C@H](CC(C)C)NC(=O)[C@H](CC(C)C)NC(C)=O [ALLN] (Ac-Leu-Leu-[Nle]-aldehyde)
[1]
  x-ray induction of ICAM-1: attenuated

## O=C(O)c1cc(O)c2c(c1)C(=O)c1cccc(O[C@@H]3O[C@H](CO)[C@@H](O)[C@H](O)[C@H]3O)c1C2=O [rhein-8-glucoside]
[2]; Narasinga Rao et al. (1994)
  block selectin binding to sLe^x: effective

## Cc1c(C(=O)O)c(O)cc2c1C(=O)c1c(O)c([C@H]3O[C@H](CO)[C@@H](O)[C@H](O)[C@H]3O)c(O)c(O)c1C2=O [carmine]
[2]; Narasinga Rao et al. (1994)
  block selectin binding to sLe^x: effective

## Neu5Acα2-3Galβ1-4 [Fucα1-3]GlcNAc [sialyl Lewis X]
[3]
  adherence of HL60 cells to irradiated HUVECs: blocked

## COc1cc2c(c(OC)c1OC)-c1ccc(OC)c(=O)cc1[C@@H](NC(C)=O)CC2 [colchicine]
[4]
  vWF secretion from thrombin-treated endothelial cells: attenuates

## Cc1c2oc3c(C)ccc(C(=O)N[C@@H]4C(=O)N[C@H](C(C)C)C(=O)N5CCC[C@H]5C(=O)N(C)CC(=O)N(C)[C@@H](C(C)C)C(=O)O[C@@H]4C)c3nc-2c(C(=O)N[C@@H]2C(=O)N[C@H](C(C)C)C(=O)N3CCC[C@H]3C(=O)N(C)CC(=O)N(C)[C@@H](C(C)C)C(=O)O[C@@H]2C)c(N)c1=O [actinomycin D] (I: T[dV]P[Sar][NMeV] / II: T[dV]P[Sar][NMeV]; ester I:1-I:C, II:1-II:C; linker I:N-II:N via Actinocin(9to1))
[5]
  radiation-mediated increase in E-selectin mRNA expression: blocked
[6]
  radiation-mediated increase in ICAM-1 mRNA expression: blocked

## Cc1c(C(=O)O)c(O)cc2c1C(=O)c1c(O)c([C@@H]3O[C@H](CO)[C@@H](O)[C@H](O)[C@H]3O)c(O)c(O)c1C2=O [carminic acid]
[2]; Narasinga Rao et al. (1994)
  block selectin binding to sLe^x: blocked selectin binding at concentrations comparable to those of glycyrrhizin
[3]
  adherence of HL60 cells to irradiated HUVECs: blocked

## picrocarmine
[2]; Narasinga Rao et al. (1994)
  block selectin binding to sLe^x: effective

## C[C@H]1O[C@H](O[C@H]2[C@H](O)[C@@H](O)[C@@H](O)[C@H](O)[C@@H]2O)[C@@H](N)C[C@@H]1NC(=N)C(=O)O [kasugamycin]
[2]; Narasinga Rao et al. (1994)
  block selectin binding to sLe^x: effective

## [ring-^14C]Chlorhexidine
[2]; Narasinga Rao et al. (1994)
  block selectin binding to sLe^x: effective

## CC1(C)[C@@H](O[C@H]2O[C@H](C(=O)O)[C@@H](O)[C@H](O)[C@H]2O[C@@H]2O[C@H](C(=O)O)[C@@H](O)[C@H](O)[C@H]2O)CC[C@]2(C)[C@H]3C(=O)C=C4[C@@H]5C[C@@](C)(C(=O)O)CC[C@]5(C)CC[C@@]4(C)[C@]3(C)CC[C@@H]12 [glycyrrhizic acid (NH^+4), glycyrrhizic acid]
[2]; Narasinga Rao et al. (1994)
  block selectin binding to sLe^x: blocked

## CC(=O)Nc1c(I)c(NC(C)=O)c(I)c(C(=O)O)c1I.CNC[C@H](O)[C@@H](O)[C@H](O)[C@H](O)CO [meglumine diatrizoate]
[2]; Narasinga Rao et al. (1994)
  block selectin binding to sLe^x: effective

## O=C(O)[C@H]1O[C@H](O[C@@H]2[C@H](O)[C@@H](O)[C@@H](O[C@@H]3[C@H](O)[C@@H](O)C(O)O[C@@H]3C(=O)O)O[C@@H]2C(=O)O)[C@H](O)[C@@H](O)[C@H]1O (some centres unmarked) [trigalacturonic acid]
[2]; Narasinga Rao et al. (1994)
  block selectin binding to sLe^x: effective

## escin
[2]; Narasinga Rao et al. (1994)
  block selectin binding to sLe^x: effective

## CC(=O)Nc1c(I)c(C(=O)O)c(I)c(N(C)C(C)=O)c1I [metrizoic acid (meglumine salt), metrizoic acid]
[2]; Narasinga Rao et al. (1994)
  block selectin binding to sLe^x: effective

## C[C@@H]1O[C@@H](O[C@H]2[C@H](O[C@H]3CC[C@@]4(C)[C@@H](CC[C@]5(C)[C@@H]4CC=C4[C@@H]6CC(C)(C)CC[C@]6(C(=O)O)CC[C@]45C)[C@]3(C)CO)OC[C@H](O)[C@@H]2O)[C@H](O)[C@H](O)[C@H]1O [α-Hederin]
[2]; selectin binding to sLe^x, Narasinga Rao et al. (1994)
  inhibiting concentrations: 2 to 3 mM

## CC(C)C[C@H](NP(=O)(O)O[C@@H]1O[C@@H](C)[C@H](O)[C@@H](O)[C@H]1O)C(=O)N[C@@H](Cc1c[nH]c2ccccc12)C(=O)[O-].CC(C)C[C@H](NP(=O)(O)O[C@@H]1O[C@@H](C)[C@H](O)[C@@H](O)[C@H]1O)C(=O)N[C@@H](Cc1c[nH]c2ccccc12)C(=O)[O-].[Na+].[Na+] [N-(α-Rhamnopyranosyloxy hydroxyphosphonyl)- Leu-Trp]
[2]; Narasinga Rao et al. (1994)
  block selectin binding to sLe^x: effective

## carmine ammonia
[2]; Narasinga Rao et al. (1994)
  block selectin binding to sLe^x: effective

## O=C(O)CN(CC(=O)O)c1ccccc1OCCOc1ccccc1N(CC(=O)O)CC(=O)O [BAPTA]
[7]
  P-selectin translocation to the cell membrane (Weibel-Palade exocytosis): attenuation
[8]
  superoxide induced von Willebrand Factor exocytosis: inhibited
[1]
  x-ray induction of ICAM-1: no effect

## CC1(C)[C@@H](O[C@H]2O[C@H](C(=O)O)[C@@H](O)[C@H](O)[C@H]2O[C@@H]2O[C@H](C(=O)O)[C@@H](O)[C@H](O)[C@H]2O)CC[C@]2(C)[C@H]3C(=O)C=C4[C@@H]5C[C@@](C)(C(=O)O)CC[C@]5(C)CC[C@@]4(C)[C@]3(C)CC[C@@H]12 [Glycyrrhizin]
[2]; Narasinga Rao et al. (1994)
  block selectin binding to sLe^x: block
[2]; Narasinga Rao et al. (1994), listed as glycyrrhizin
  block selectin binding to sLe^x: blocked
[9]
  absorption from the gut: poorly absorbed
[3]
  adherence of HL60 cells to irradiated HUVECs: blocked

## calphostin
[7]
  P-selectin translocation to the cell membrane (Weibel-Palade exocytosis): attenuation; also recorded: attenuates
[1]
  x-ray induction of ICAM-1: no effect

## C[C@H]1O[C@H](OC2[C@@H](O)[C@@H](O)C(O)[C@H](O)[C@H]2O)[C@@H](N)C[C@@H]1N=C(N)C(=O)O.Cl (some centres unmarked) [kasugamycin hydrochloride]
[2]; Narasinga Rao et al. (1994)
  block selectin binding to sLe^x: effective

## CO[C@H]1[C@@H](OC)C[C@H](C)[C@@H](OC)C2=CC(=O)C=C(NC(=O)/C(C)=C/C=C\[C@H](OC)[C@@H](OC(N)=O)/C(C)=C/[C@@H]1C)C2=O [herbimycin A]
[7]
  P-selectin translocation to the cell membrane (Weibel-Palade exocytosis): no effect
[1]
  x-ray induction of ICAM-1: attenuated

## COC(=O)CCCCCCCCO[C@@H]1O[C@H](CO)[C@@H](O[C@@H]2O[C@@H](C)[C@@H](O)[C@@H](O)[C@@H]2O)[C@H](O[C@@H]2O[C@H](CO)[C@H](O)[C@H](O[C@]3(C(=O)O)C[C@H](O)[C@@H](NC(C)=O)[C@H]([C@H](O)[C@H](O)CO)O3)[C@H]2O)[C@H]1N [amino substituted sLe^a]
[10]
  IC50: 21 ± 3 µM
  more active than the reducing tetrasaccharide sLe^x: 36 fold

## COC(=O)Nc1nc2cc(C(=O)c3cccs3)ccc2[nH]1 [nocodozol]
[11]
  x-ray induced translocation of P-selectin: inhibited
  8-fold increase in P-selectin immunofluorescence on the cell surface: abrogated

## CC1(C)[C@@H](O)CC[C@]2(C)[C@H]3C(=O)C=C4[C@@H]5C[C@@](C)(C(=O)O)CC[C@]5(C)CC[C@@]4(C)[C@]3(C)CC[C@@H]12 [18-β-glycyrrhetinic acid]
[2]; Narasinga-Rao et al. (1994), read-out: IC50 blocking selectin activity
  IC50: > 2000 µM

## CC1OC(OC2CCC3(C)C(CCC4(C)C3C(=O)C=C3C5CC(C)(C(=O)O)CCC5(C)CCC34C)C2(C)C)C(O)C(O)C1O [L-fucose derivative]
[2]; sugars substituted for the glucuronic acids of glycyrrhizin, Narasinga Rao et al. (1994)
  selectin inhibition activity in vitro: most active
[12]
  in vivo efficacy (anti-inflammatory activity): most active

## C=C1[C@@H](C)[C@H]2[C@H](Cc3ccccc3)NC(=O)[C@]23OC(=O)/C=C/[C@H](O)CCC[C@@H](C)C/C=C/[C@H]3[C@@H]1O [cytochalasin-B]
[11]
  x-ray induced translocation of P-selectin: no inhibition
  8-fold increase in P-selectin immunofluorescence on the cell surface: not
